Assays:
[1] = cited from earlier work
UGT1A1 = system: UGT1A1; design: species or system patients; details: UGT1A1*28 and *60; population model ref 24
[2] = no reference given; cited from earlier work

| Structure (SMILES) | half-life [1] | model-predicted clearance versus number of variant copies of UGT1A1 (UGT1A1) | dose excreted unchanged renally [2] [%] |
| --- | --- | --- | --- |
| O=C(/C=C/c1cccc(S(=O)(=O)Nc2ccccc2)c1)NO [belinostat] | ~ 1 h | decreasing trend with the number of variant copies of UGT1A1 | – |
| COc1cc([C@@H]2c3cc4c(cc3[C@@H](O[C@@H]3O[C@@H]5CO[C@@H](C)O[C@H]5[C@H](O)[C@H]3O)[C@H]3COC(=O)[C@H]23)OCO4)cc(OC)c1O [etoposide] | – | – | 56 |

From paper PMC6631369 (Anti-cancer drugs, 2018)
